The source of these data is patent US8552002B2 (Novartis AG, priority 2004, dated 2013).

Common to all, as to type: biochemical
In one test the target is T1, Tek (Homo sapiens, UniProt Q02763).
T1 construct: amino acids 773-1124 of the cytoplasmic kinase domain of human Tek, N-terminally fused to GST; made in house; host or cells: Sf9 insect cells (baculovirus)
Nature of the test: Recombinant GST-Tek (Tie-2) tyrosine kinase assay (33P into poly(Glu,Tyr)). The note with it: Examples 1 to 169. An outline of the steps:
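GST-fused human Tek kinase domain (aa 773-1124), baculovirus-expressed, 150 ng per reaction; 10 μg/mL poly(Glu,Tyr) 4:1, 4.0 μM [γ-33P]ATP, 3 mM MnCl2/3 mM MgCl2, pH 7.5, 30 min at ambient temperature. 33P uptake read on PVDF filters; IC50 by linear regression from four concentrations in duplicate.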

The target of another test is T2, FGFR3 (K650E) (Homo sapiens, UniProt P22607, K650E).
T2 construct: amino acids 411-806 of the cytoplasmic domain of human FGFR-3, N-terminally fused to GST; made in house; host or cells: Sf9 insect cells (baculovirus)
Nature of the test: Recombinant GST-FGFR-3-K650E tyrosine kinase assay (33P into poly(Glu,Tyr)). To be noted: 10 μM; Examples 1 to 169; read-out: FGFR3 (K650E) inhibition at 10 μM.

A further test addresses T3, KDR (Homo sapiens, UniProt P35968).
T3 construct: expressed in transfected cells; host or cells: CHO cells
Nature of the test: Inhibitory activity against KDR (VEGF-R2), in vitro data of Examples 170 and 207. The note with it: 10 μM; Examples 1 to 169; read-out: KDR inhibition at 10 μM. An outline of the steps:
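KDR tyrosine phosphorylation detected by luminescence after overnight 4° C capture of 20 μg lysate protein with PY20:AP antibody. Lysates came from cells given compound for 2 h at 37° C, then final 20 ng/ml VEGF for 5 min; compound-free medium as control.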

As usually defined, the inhibition is how much of the control response was suppressed.

T2 sequence (P22607 411-806 K650E): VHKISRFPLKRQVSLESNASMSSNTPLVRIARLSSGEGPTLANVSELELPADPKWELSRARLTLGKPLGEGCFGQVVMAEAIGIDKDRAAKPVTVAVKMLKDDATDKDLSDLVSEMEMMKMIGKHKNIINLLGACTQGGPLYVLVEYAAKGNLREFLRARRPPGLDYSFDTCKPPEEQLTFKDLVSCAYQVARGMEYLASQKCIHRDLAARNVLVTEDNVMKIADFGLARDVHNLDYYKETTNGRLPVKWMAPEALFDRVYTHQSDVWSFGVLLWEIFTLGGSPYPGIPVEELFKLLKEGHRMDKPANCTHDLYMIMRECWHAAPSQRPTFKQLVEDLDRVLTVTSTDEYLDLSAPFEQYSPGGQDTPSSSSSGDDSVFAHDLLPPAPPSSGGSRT
T1 sequence (Q02763 773-1124): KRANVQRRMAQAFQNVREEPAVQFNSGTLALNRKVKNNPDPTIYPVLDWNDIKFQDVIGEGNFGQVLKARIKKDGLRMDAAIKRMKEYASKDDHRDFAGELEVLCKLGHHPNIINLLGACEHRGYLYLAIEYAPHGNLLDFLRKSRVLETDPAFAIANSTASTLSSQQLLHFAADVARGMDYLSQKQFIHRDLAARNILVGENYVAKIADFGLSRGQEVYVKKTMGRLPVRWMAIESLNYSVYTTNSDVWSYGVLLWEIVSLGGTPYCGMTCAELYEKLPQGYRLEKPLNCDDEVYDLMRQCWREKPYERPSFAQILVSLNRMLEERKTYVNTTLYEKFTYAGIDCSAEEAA
T3 sequence (P35968 20-1356): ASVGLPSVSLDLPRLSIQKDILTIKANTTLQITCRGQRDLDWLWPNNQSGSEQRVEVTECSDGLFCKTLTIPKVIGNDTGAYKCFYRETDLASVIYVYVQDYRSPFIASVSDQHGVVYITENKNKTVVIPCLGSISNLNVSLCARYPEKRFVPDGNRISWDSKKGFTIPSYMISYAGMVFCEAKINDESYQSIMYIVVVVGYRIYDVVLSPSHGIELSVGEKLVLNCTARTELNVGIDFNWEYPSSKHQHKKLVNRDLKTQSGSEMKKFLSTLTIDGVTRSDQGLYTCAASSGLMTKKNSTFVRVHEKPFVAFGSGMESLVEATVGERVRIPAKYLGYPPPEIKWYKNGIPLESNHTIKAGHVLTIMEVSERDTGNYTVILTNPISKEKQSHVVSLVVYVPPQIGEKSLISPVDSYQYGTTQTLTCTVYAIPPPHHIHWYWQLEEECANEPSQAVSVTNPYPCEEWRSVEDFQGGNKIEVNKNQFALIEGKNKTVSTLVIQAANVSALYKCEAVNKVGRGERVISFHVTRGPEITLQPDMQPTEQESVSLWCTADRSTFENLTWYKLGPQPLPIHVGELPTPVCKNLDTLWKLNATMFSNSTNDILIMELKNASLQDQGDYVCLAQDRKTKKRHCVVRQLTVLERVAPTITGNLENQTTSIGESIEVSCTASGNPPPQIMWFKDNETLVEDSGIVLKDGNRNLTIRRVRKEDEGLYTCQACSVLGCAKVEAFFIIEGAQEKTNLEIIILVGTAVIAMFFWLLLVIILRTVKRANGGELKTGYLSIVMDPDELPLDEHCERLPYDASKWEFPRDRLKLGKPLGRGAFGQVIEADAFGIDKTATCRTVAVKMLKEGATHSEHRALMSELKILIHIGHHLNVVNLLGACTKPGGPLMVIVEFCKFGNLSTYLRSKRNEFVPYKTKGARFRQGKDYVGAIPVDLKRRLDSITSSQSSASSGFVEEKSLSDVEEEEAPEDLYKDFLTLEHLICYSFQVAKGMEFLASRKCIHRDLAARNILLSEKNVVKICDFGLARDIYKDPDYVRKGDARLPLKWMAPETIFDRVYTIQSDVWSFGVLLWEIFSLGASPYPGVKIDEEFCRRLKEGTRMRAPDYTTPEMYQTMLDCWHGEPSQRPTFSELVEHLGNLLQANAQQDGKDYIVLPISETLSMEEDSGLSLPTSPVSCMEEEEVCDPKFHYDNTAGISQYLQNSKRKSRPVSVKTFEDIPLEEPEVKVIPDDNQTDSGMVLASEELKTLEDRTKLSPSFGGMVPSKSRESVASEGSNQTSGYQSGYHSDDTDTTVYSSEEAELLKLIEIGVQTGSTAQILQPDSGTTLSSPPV

As for `CCN1CCN(c2ccc(Nc3cc(N(C)C(=O)Nc4c(Cl)c(OC)cc(OC)c4Cl)ncn3)cc2)CC1` [Example 145, 3-(2,6-Dichloro-3,5-dimethoxy-phenyl)-1-{6-[4-(4-ethyl-piperazin-1-yl)-phenylamino]-pyrimidin-4-yl}-1-methyl-urea], the inhibition at 10 µM at Tek is 12 to 100%; on FGFR3 (K650E), 27 to 100%; on KDR, 67 to 100%.
Taken in the same sequence, the figures for `COc1cc(OC)c(Cl)c(NC(=O)N(C)c2cc(Nc3ccc(OCCCN4CCN(C)CC4)cc3)ncn2)c1Cl` [Example 146, 3-(2,6-Dichloro-3,5-dimethoxy-phenyl)-1-methyl-1-(6-{4-[3-(4-methyl-piperazin-1-yl)-propoxy]-phenylamino}-pyrimidin-4-yl)-urea] were 12 to 100%, 27 to 100% and 67 to 100%.
For `CCN1CCN(Cc2ccc(Nc3cc(N(C)C(=O)Nc4c(Cl)c(OC)cc(OC)c4Cl)ncn3)cc2)CC1` [Example 149, 3-(2,6-Dichloro-3,5-dimethoxy-phenyl)-1-{6-[4-(4-ethyl-piperazin-1-ylmethyl)-phenylamino]-pyrimidin-4-yl}-1-methyl-urea], the values for the inhibition at 10 µM on Tek, on FGFR3 (K650E) and at KDR were 12 to 100%, 27 to 100% and 67 to 100%, respectively.
As to `CCN1CCN(Cc2cccc(Nc3cc(N(C)C(=O)Nc4c(Cl)c(OC)cc(OC)c4Cl)ncn3)c2)CC1` [Example 150, 3-(2,6-Dichloro-3,5-dimethoxy-phenyl)-1-{6-[3-(4-ethyl-piperazin-1-ylmethyl)-phenylamino]-pyrimidin-4-yl}-1-methyl-urea], the inhibition at 10 µM on Tek lay within 12 to 100%; on FGFR3 (K650E), 27 to 100%; on KDR it was 67 to 100%.
In the same order, the values of `CCN(C(=O)Nc1c(Cl)c(OC)cc(OC)c1Cl)c1cc(Nc2cccc(CN(C)C)c2)ncn1` [Example 151, 3-(2,6-Dichloro-3,5-dimethoxy-phenyl)-1-[6-(3-dimethylaminomethyl-phenylamino)-pyrimidin-4-yl]-1-ethyl-urea] are 12 to 100%, 27 to 100% and 67 to 100%.
`CCN(CC)CCOc1ccc(Nc2cc(N(C)C(=O)Nc3c(Cl)c(OC)cc(OC)c3Cl)ncn2)cc1` [Example 152, 3-(2,6-Dichloro-3,5-dimethoxy-phenyl)-1-{6-[4-(2-diethylamino-ethoxy)-phenylamino]-pyrimidin-4-yl}-1-methyl-urea]: the inhibition at 10 µM at Tek fell in the range of 12 to 100%; on FGFR3 (K650E), 27 to 100%; on KDR, 67 to 100%.
Turning to `COc1cc(OC)c(Cl)c(NC(=O)N(C)c2cc(Nc3ccc(C)nc3C)ncn2)c1Cl` [Example 153, 3-(2,6-Dichloro-3,5-dimethoxy-phenyl)-1-[6-(2,6-dimethyl-pyridin-3-ylamino)-pyrimidin-4-yl]-1-methyl-urea], the inhibition at 10 µM was in the range of 12 to 100% on Tek, 27 to 100% on FGFR3 (K650E) and 67 to 100% at KDR.
In the same order, the values of `COc1cc(OC)c(Cl)c(NC(=O)N(C)c2cc(Nc3ccc(C(F)(F)F)nc3)ncn2)c1Cl` [Example 154, 3-(2,6-Dichloro-3,5-dimethoxy-phenyl)-1-methyl-1-[6-(6-trifluoromethyl-pyridin-3-ylamino)-pyrimidin-4-yl]-urea] are 12 to 100%, 27 to 100% and 67 to 100%.
Turning to `COc1cc(OC)c(Cl)c(NC(=O)Nc2cc(Nc3ccc(OCCN4CCCC4)cc3)ncn2)c1Cl` [Example 155, 1-(2,6-Dichloro-3,5-dimethoxy-phenyl)-3-{6-[4-(2-pyrrolidin-1-yl-ethoxy)-phenylamino]-pyrimidin-4-yl}-urea], the inhibition at 10 µM at Tek is 12 to 100%; on FGFR3 (K650E), 27 to 100%; at KDR, 67 to 100%.
